Experimental data: PMC7594722, “Investigation of pesticides on honey bee carbonic anhydrase inhibition” (Journal of Enzyme Inhibition and Medicinal Chemistry, 2020)
Like-named read-outs stand apart in the source and are kept apart here.

Experiments:
[1] = biological target: AmCA (Apis mellifera spermatheca carbonic anhydrase); conditions: AmCA inhibition data from previous study; cited from earlier work
[2] = biological target: AmCA (Apis mellifera spermatheca carbonic anhydrase); experiment: AmCA inhibition, colorimetric CO2 hydrase assay; type: biochemical; conditions: AmCA from honey bee spermatheca, triplicate, enzyme concentration 8.9 nM
Experimental: Bee spermatheca samples were washed three times with 50 mM Tris/Sulphate (pH 7.8). Spermatecha samples taken from 200 bees were combined and homogenised with liquid nitrogen, then placed in the same buffer and centrifuged at 4 °C, 15,000 g for 30 min. The precipitate portion was discarded and the supernatant portion was separated and used in subsequent studies.
The enzyme was purified using Sepharose-4B-sulfanilamide affinity gel prepared by our group. Aniline was used as a spacer arm in the chromatography column. The column was then equilibrated with 25 mM Tris-HCl/0.1M Na2SO4 (pH 8.7) and the gel was washed with 25 mM Tris-HCl/22 mM Na2SO4 (pH 8.7). Finally, elution was performed with 1 M NaCl/25 mM Na2HPO4 (pH 6.3). The temperature was kept at 4 °C during all experiments.
The effects of methomyl, oxamyl, deltamethrin, dichlorodiphenyltrichloroethane ([…]), cypermethrin and diazinon on AmCA activities were assayed colorimetrically using the CO2 hydrase assay, in triplicate at each concentration of inhibitor (ranging from 1 nM to 10 mM). Control enzyme activity was taken as 100%. An activity % versus inhibitor graph was drawn for all pesticides (Microsoft Office 2000, Excel). Pesticide concentrations that caused 50% inhibition (IC50) of the enzyme activity were thus obtained graphically using a regression software. The enzyme concentration in the assay system was 8.9 nM.

[3] = system: honey bees and bumblebees; conditions: cited from earlier work
[4] = system: honey bees and bumblebees; conditions: cited from earlier work; remark: listed apart in the source

CCNc1nc(Cl)nc(NC(C)C)n1 [Atrazine, atrazine]
IC50 [1]: 16.5 nM

CNC(=O)Oc1cccc2ccccc12 [Carbaryl, carbaryl]
IC50 [1]: 3.1 nM

CNC(=O)Oc1cccc2c1OC(C)(C)C2 [Carbonfuran, carbofuran]
IC50 [1]: 8.7 nM

CC1(C)C(C=C(Cl)Cl)C1C(=O)OC(C#N)c1cccc(Oc2ccccc2)c1 (stereo not drawn) [Cypermethrin, cypermethrin]
IC50 [2]: 7.8 ± 0.3 nM
topical lethal dose (LD50) [3]: 0.03 μg/bee
oral dose rates (oral LD50) [4]: 0.06 μg/bee

CC1(C)[C@H](C(=O)O[C@H](C#N)c2cccc(Oc3ccccc3)c2)[C@@H]1C=C(Br)Br [Deltamethrin, deltamethrin]
IC50 [2]: 2.8 ± 0.1 nM
topical lethal dose (LD50) [3]: 0.02 μg/bee

CCOP(=S)(OCC)Oc1cc(C)nc(C(C)C)n1 [Diazinon, diazinon]
IC50 [2]: 38.5 ± 1.2 nM
topical lethal dose (LD50) [3]: 0.38 μg/bee
oral dose rates (oral LD50) [4]: 0.21 μg/bee

CNC(=O)ON=C(C)SC [Methomyl, methomyl]
IC50 [2]: 2.3 ± 0.1 nM
topical lethal dose (LD50) [3]: 0.49 μg/bee
oral dose rates (oral LD50) [4]: 3.38 μg/bee

CNC(=O)O/N=C(\SC)C(=O)N(C)C [Oxamyl, oxamyl]
IC50 [2]: 2.5 ± 0.1 nM

CNC(=O)Oc1ccccc1OC(C)C [Propoxur, propoxur]
IC50 [1]: 32.1 nM

CCNc1nc(Cl)nc(NCC)n1 [Simazin, simazine]
IC50 [1]: 27.3 nM

CC(C)(C)C(O)(CCc1ccc(Cl)cc1)Cn1cncn1 (stereo not drawn) [Tebuconazole, tebuconazole]
IC50 [1]: 3 nM
